Measurements published in paper PMC11541513, “Inhibitory Effects of Mangifera indica Secondary Metabolites and Their Synthetic Derivatives against SARS-CoV-2 M^pro and NS2B/NS3 (ZIKV and DENV-2)” (ACS Omega, 2024).
“And” between values parts separate entries of the source, which are not always exact repeats. Identical values can stand only once. Like-named read-outs stand apart in the source and are kept apart here.

Columns and labels:
SARS-CoV-2 M^pro = molecular target: T1, SARS-CoV-2 M^pro (Severe acute respiratory syndrome coronavirus 2, UniProt P0DTD1); assay: SARS-CoV-2 M^pro inhibition assay (chromogenic peptide substrate); type: biochemical; details: for IC50: M^pro, substrate 200 μM; for inhibition at 200 µM: read-out: effect at 200 μM (%); for obs.: observation at the end of the M^pro experiment; for solubility during the biological testing: result in words, M^pro testing
T1 construct: 30 μL of Mpro enzyme (Sigma-Aldrich) at a final concentration of 10 μg/mL; purchased Sigma-Aldrich
Protocol: Inhibitory effects against M^pro of all compounds were evaluated based on the experimental procedure provided by the manufacturer with some modifications.
[…] of chemicals dissolved in DMSO, with a final concentration of 200 μM, were put in triplicate to each well of a 96-well flat bottom microplate. After that, the plate was incubated for 10 min at room temperature with 30 μL of Mpro enzyme (Sigma-Aldrich) at a final concentration of 10 μg/mL diluted in buffer containing 25 mM HEPES (Sigma-Aldrich) and 0.2% of Tween-20 (Sigma-Aldrich). Furthermore, the chromogenic peptide substrate (Thr-Ser-Ala-Val-Leu-Gln-pNA, Sigma-Aldrich) was added in a volume of 10 μL to each well, at a final concentration of 200 μM and incubated for another 45 min at 37 °C. […] As directed by the manufacturer, with minor modifications, the experiment was carried out to ascertain the half-maximum inhibitory concentration (IC50) that may block the activity of the M^pro enzyme. […] The plate was then kept at room temperature for 10 min. Following this time interval, 10 μL of a 200 μM final concentration of chromogenic peptide substrate (Sigma-Aldrich) was added to each well, and the mixture was incubated for an additional 45 min at 37 °C.

[1] = Cytotoxicity against Vero cells (resazurin); type: cell-based; details: African green monkey, read-out: CC50 ± SD (μM) Vero
Protocol: (§1) In a 96-well flat bottom microplate, THP-1 cells (12 × 10^4 cells/well) were seeded with 180 μL of RPMI 1640 medium (Sigma-Aldrich) without phenol red supplemented with 10% FBS (Sigma-Aldrich), 2 mM L-glutamine (Gibco), […] (Sigma-Aldrich), 10 U/mL penicillin (Gibco), and 10 μg/mL streptomycin (Gibco) in the presence of 100 ng/mL of phorbol-12-myristate-13-acetate (PMA) (Sigma-Aldrich). The microplate was then incubated at 37 °C in a 5% CO2 atmosphere for 72 h. Vero cells ([…]) were seeded in 180 μL of RPMI 1640 media (Sigma-Aldrich), which was then supplemented with 10% FBS (Sigma-Aldrich), 10 U/mL penicillin (Gibco), and 10 μg/mL streptomycin (Gibco). The cells were then incubated for 24 h at 37 °C in a 5% CO2 environment. Each target chemical, diluted in RPMI-1640 media (Sigma-Aldrich) without FBS, at doses of 150, 50, 16.7, and 5.6 μM, was applied in 20 μL to each of the two cell lines. The positive and negative controls were 50 and 0.3% DMSO (Sigma-Aldrich), respectively. The plates were incubated in an environment containing 5% CO2 for 67 h at 37 °C. Next, 20 μL of resazurin (250 μg/mL) from Sigma-Aldrich was added, and the mixture was incubated at 37 °C for 5 h. The microplate was measured using a Tecan Model Infinite M200 spectrophotometer at 530 and 590 nm in wavelengths. Every experiment was run three times.[23],[24]

DENV-2 NS2B/NS3 = DENV-2 NS2B/NS3 (Dengue virus type 2, UniProt P29990); assay: DENV-2 NS2B/NS3 protease fluorogenic substrate assay; details: for inhibition at 100 µM: read-out: screening at 100 μM (%), DENV-2 NS2B/NS3, 100 μM compound
ZIKV NS2B/NS3 = molecular target: T2, ZIKV NS2B/NS3 (Zika virus, UniProt Q32ZE1); assay: ZIKV NS2B/NS3 protease fluorogenic substrate assay; type: biochemical; details: for inhibition at 100 µM: read-out: screening at 100 μM (%); for mechanism of inhibition: ZIKV NS2B/NS3, IC50 at four substrate concentrations, Dixon plots; for inhibition at 20 µM: read-out: screening at 20 μM (%)
T2 construct: tested against the nonstructural protease of ZIKV (NS2B/NS3)

[2] = Cytotoxicity against THP-1 cells (resazurin); type: cell-based; details: human, THP-1 cells differentiated with PMA, read-out: CC50 ± SD (μM) THP-1
Protocol: as §1

[3] = inhibitory percentage against M^pro at 200 μM, NA: no activity
[4] = IC50 at substrate 50 μM, binding mechanism study, Boc-Gly-Arg-Arg-AMC 50 μM
[5] = IC50 at substrate 100 μM, binding mechanism study, Boc-Gly-Arg-Arg-AMC 100 μM
[6] = IC50 at substrate 150 μM, binding mechanism study, Boc-Gly-Arg-Arg-AMC 150 μM
[7] = IC50 at substrate 200 μM, binding mechanism study, Boc-Gly-Arg-Arg-AMC 200 μM
[8] = ZIKV NS2B/NS3, substrate 100 μM, read-out: IC50

T2 sequence (Q32ZE1 1421-1460): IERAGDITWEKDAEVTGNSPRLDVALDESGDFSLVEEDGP
T2 sequence (Q32ZE1 1499-1676): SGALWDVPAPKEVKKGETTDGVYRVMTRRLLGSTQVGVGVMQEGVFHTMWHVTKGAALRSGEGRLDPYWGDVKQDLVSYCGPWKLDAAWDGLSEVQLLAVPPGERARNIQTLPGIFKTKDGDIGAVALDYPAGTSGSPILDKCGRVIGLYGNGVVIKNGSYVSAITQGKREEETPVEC
Sequence of DENV-2 NS2B/NS3 (P29990 1398-1437): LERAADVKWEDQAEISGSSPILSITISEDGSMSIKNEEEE
Sequence of DENV-2 NS2B/NS3 (P29990 1476-1653): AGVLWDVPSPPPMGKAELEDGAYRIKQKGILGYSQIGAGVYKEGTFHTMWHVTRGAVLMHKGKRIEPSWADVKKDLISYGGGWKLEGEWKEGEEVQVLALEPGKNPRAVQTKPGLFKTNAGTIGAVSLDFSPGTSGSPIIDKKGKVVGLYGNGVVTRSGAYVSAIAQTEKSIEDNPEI

| Molecule | CC50 at 67 h [1] [µM] | IC50 (SARS-CoV-2 M^pro) [µM] | inhibition at 200 µM (SARS-CoV-2 M^pro; [3]) [%] | inhibition at 100 µM (DENV-2 NS2B/NS3) [%] | inhibition at 100 µM (ZIKV NS2B/NS3; ZIKV NS2B/NS3, 100 μM compound) [%] | IC50 (ZIKV NS2B/NS3; [8]) [µM] | CC50 at 67 h [2] [µM] | inhibition at 20 µM (ZIKV NS2B/NS3; ZIKV NS2B/NS3, 20 μM compound) [%] | other results |
| --- | --- | --- | --- | --- | --- | --- | --- | --- | --- |
| methyl 3,5-dihydroxy-4-methoxybenzoate [Compound 2m] |  |  |  |  |  |  |  |  | effect at 200 μM (%) (SARS-CoV-2 M^pro; [3]): 44.2% |
| CC(C)=CCCC(C)CCOC(=O)c1cc(O)c(O)c(O)c1 (centres unmarked) [Compound 2g] | 82.1 ± 31.5 | 88.7 ± 11.6 | 73.3 | 28 ± 2 | 97 ± 1.1 | 1.9 ± 0.1 | 32.1 ± 3.4 |  | IC50 (ZIKV NS2B/NS3; [4]): 2.93 µM; IC50 (ZIKV NS2B/NS3; [5]): 2.48 µM; IC50 (ZIKV NS2B/NS3; [6]): 2.96 µM; IC50 (ZIKV NS2B/NS3; [7]): 2.03 µM; screening at 20 μM (%) (ZIKV NS2B/NS3; ZIKV NS2B/NS3, 20 μM compound): 99 ± 0.4%; mechanism of inhibition (ZIKV NS2B/NS3): noncompetitive; inhibition at 20 µM (ZIKV NS2B/NS3): 99% |
| CC1(C)CC[C@]2(C)CC=C3[C@]4(C)CC[C@H]5C(C)(C)C(=O)CC[C@]5(C)[C@H]4CC[C@@]3(C)[C@@H]2C1 [Compound 1a, taraxerone] |  |  |  |  |  |  |  |  | effect at 200 μM (%) (SARS-CoV-2 M^pro; [3]): 84.0%; obs. (SARS-CoV-2 M^pro): SP^#; inhibition at 200 µM (SARS-CoV-2 M^pro): 84%; solubility during the biological testing (SARS-CoV-2 M^pro): low solubility |
| CC(C)=CCCC(C)=CCOC(=O)c1cc(O)c(O)c(O)c1 [Compound 2f] | 48.4 ± 13.2 | 9.5 ± 1 | 97 | > 50 | 99 ± 0.4 | 2.7 ± 0.3 | 72.1 ± 7.3 |  | IC50 (ZIKV NS2B/NS3; [4]): 3.2 µM; IC50 (ZIKV NS2B/NS3; [5]): 3.04 µM; IC50 (ZIKV NS2B/NS3; [6]): 3.6 µM and 3.61 µM; IC50 (ZIKV NS2B/NS3; [7]): 3.78 µM; screening at 20 μM (%) (ZIKV NS2B/NS3; ZIKV NS2B/NS3, 20 μM compound): 98 ± 1.1%; mechanism of inhibition (ZIKV NS2B/NS3): noncompetitive; inhibition at 20 µM (ZIKV NS2B/NS3): 98% |
| C=CC(C)(CCC=C(C)C)OC(=O)c1cc(O)c(O)c(O)c1 (centres unmarked) [Compound 2i] | > 150 | 4 ± 0.9 | 80 |  |  |  | 98.9 ± 5 |  |  |
| CC1(C)CC[C@]2(C)CC=C3[C@]4(C)CC[C@H]5C(C)(C)[C@@H](O)CC[C@]5(C)[C@H]4CC[C@@]3(C)[C@@H]2C1 [Compound 1, taraxerol] |  |  |  |  |  |  |  |  | effect at 200 μM (%) (SARS-CoV-2 M^pro; [3]): 48.0%; inhibition at 200 µM (SARS-CoV-2 M^pro): 48% |
| COC(=O)c1cc(O)c(O)c(O)c1 [Compound 2, methyl gallate] | > 150 | 4.5 ± 1.8 |  |  |  |  | 52.9 ± 19.2 |  | effect at 200 μM (%) (SARS-CoV-2 M^pro; [3]): 68.0%; inhibition at 200 µM (SARS-CoV-2 M^pro): 68% |
| O=c1c2ccccc2[se]n1-c1ccccc1 [Ebselen, reference compound] |  |  |  |  |  |  |  |  | effect (%) of positive control (SARS-CoV-2 M^pro; Ebselen at 10 μM): 90% |
| C=CCOC(=O)c1cc(O)c(O)c(O)c1 [Compound 2d] | > 150 | 12.4 ± 2.4 | 94.3 | 29 ± 1 | 53 ± 1.7 | 92.5 ± 3.1 | 28.5 ± 3.2 | 25 ± 2.2 |  |
| COC(=O)c1cc(OC)c(OC)c(OC)c1 [Compound 2l, Methyl 3,4,5-trimethoxybenzoate] | > 150 |  | 55.5 |  |  |  | > 150 |  | obs. (SARS-CoV-2 M^pro): SP^#; solubility during the biological testing (SARS-CoV-2 M^pro): solubility problems |
| O=C(OCCCc1ccccc1)c1cc(O)c(O)c(O)c1 [Compound 2h] |  |  | 45.1 | 20 ± 1 | 99 ± 0.2 | 4.8 ± 0.5 |  |  | screening at 20 μM (%) (ZIKV NS2B/NS3; ZIKV NS2B/NS3, 20 μM compound): 96 ± 0.4%; inhibition at 20 µM (ZIKV NS2B/NS3): 96% |
| CC(C)OC(=O)c1cc(O)c(O)c(O)c1 [Compound 2a] | > 150 | 20.7 ± 8.2 | 78 | 48 ± 1 | 98 ± 0.5 | 19.8 ± 0.5 | 78.5 ± 8.1 | 51 ± 3.4 | IC50 (DENV-2 NS2B/NS3; IC50 (μM), DENV-2 NS2B/NS3, substrate 100 μM): > 100 µM |
| O=C(OCCc1ccccc1)c1cc(O)c(O)c(O)c1 [Compound 2j] | > 150 |  | 60.8 | 22 ± 1 | 82 ± 2.7 | 19.7 ± 2.1 | 22.9 ± 3.2 | 50 ± 3.8 | obs. (SARS-CoV-2 M^pro): SP^#; solubility during the biological testing (SARS-CoV-2 M^pro): solubility problems |
| C=CCCOC(=O)c1cc(O)c(O)c(O)c1 [Compound 2c] | > 150 | 35.8 ± 4.5 | 80.4 | 18 ± 3 | 48 ± 2.2 | > 100 | 38.8 ± 4.4 | 25 ± 2.6 |  |
| CC(C)CCOC(=O)c1cc(O)c(O)c(O)c1 [Compound 2e] | > 150 | 2.6 ± 1 | 99.5 | > 50 | 99 ± 0.2 | 13 ± 0.4 | 47 ± 6.5 | 72 ± 3.1 |  |
| CCC=CCCOC(=O)c1cc(O)c(O)c(O)c1 [Compound 2k] |  |  | 41.9 | 28 ± 4 | 100 ± 0.1 | 6.1 ± 0.6 |  | 86 ± 0.8 |  |
| CCCCCCCCCCCCCCOC(=O)c1cc(O)c(O)c(O)c1 [Compound 2b] |  |  |  | 21 ± 3 |  | 84.9 ± 9 |  |  | inhibition at 20 µM (ZIKV NS2B/NS3): 64 ± 2.5%; inhibition at 100 µM (ZIKV NS2B/NS3): 55 ± 2.3% |
